16 compounds from ChEMBL document CHEMBL1155227, “Identification of N-(5-tert-butyl-isoxazol-3-yl)-N'-{4-[7-(2-morpholin-4-yl-ethoxy)imidazo[2,1-b][1,3]benzothiazol-2-yl]phenyl}urea dihydrochloride (AC220), a uniquely potent, selective, and efficacious FMS-like tyrosine kinase-3 (FLT3) inhibitor” (J Med Chem, 2009) can be followed below.

In data set [1] the target is T1, Receptor-type tyrosine-protein kinase FLT3 (Homo sapiens, UniProt P36888).
T1 sequence (P36888 whole entry): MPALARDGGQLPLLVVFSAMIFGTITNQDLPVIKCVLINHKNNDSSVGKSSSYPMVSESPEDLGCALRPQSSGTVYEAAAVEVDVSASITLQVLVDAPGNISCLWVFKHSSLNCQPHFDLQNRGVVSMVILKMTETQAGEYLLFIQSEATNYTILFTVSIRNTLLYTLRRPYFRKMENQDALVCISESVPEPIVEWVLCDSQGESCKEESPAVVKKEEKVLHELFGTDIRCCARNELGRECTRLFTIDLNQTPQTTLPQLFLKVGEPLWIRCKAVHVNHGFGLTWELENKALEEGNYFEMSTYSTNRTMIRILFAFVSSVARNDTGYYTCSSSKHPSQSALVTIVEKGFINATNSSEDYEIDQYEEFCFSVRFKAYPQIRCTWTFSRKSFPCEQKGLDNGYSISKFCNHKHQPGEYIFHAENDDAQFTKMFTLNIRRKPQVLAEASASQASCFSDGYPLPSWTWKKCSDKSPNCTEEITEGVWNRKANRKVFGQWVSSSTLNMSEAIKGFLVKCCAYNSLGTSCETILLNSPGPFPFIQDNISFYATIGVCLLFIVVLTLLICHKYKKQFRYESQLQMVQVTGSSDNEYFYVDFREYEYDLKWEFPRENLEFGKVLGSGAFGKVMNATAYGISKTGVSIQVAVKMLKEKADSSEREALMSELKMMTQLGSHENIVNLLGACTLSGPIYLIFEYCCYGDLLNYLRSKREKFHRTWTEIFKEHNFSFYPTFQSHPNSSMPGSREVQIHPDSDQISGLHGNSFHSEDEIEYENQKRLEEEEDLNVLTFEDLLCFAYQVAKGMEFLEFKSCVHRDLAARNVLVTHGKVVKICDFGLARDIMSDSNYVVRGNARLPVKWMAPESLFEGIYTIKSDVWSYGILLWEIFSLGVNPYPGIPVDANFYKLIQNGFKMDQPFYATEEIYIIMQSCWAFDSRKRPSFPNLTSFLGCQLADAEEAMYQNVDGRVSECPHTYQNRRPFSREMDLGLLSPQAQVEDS
Kind of data set: biochemical. Format: cell-based, HEK293.
Description: Binding affinity to FLT3 catalytic domain expressed in HEK293 cells by competitive binding assay

The test system of the next data set is MV4-11. Kind of data set: cells. Particulars: Homo sapiens, MV4-11, 72 h.
Data set [2] is described as follows: in vivo. Particulars: athymic nude, mouse, plasma, po, 10 mg/kg.
Description: AUC (0 to infinity) in athymic nude mouse at 10 mg/kg, po
A short description of data set [3]: in vivo. Particulars: athymic nude, mouse, po, 10 mg/kg.
Description: Cmax in athymic nude mouse at 10 mg/kg, po
The nature of data set [4]: in vivo. Particulars: athymic nude, mouse, po, 10 mg/kg. The source holds these as a separate data set.
Description: Half life in athymic nude mouse at 10 mg/kg, po

Description for MV4-11: Antiproliferative activity against human MV4-11 cells after 72 hrs by cell titer-blue cell viability assay

With `CC(C)(C)c1cc(NC(=O)Nc2ccc(-c3cn4c(n3)sc3ccc(OCCN5CCOCC5)cc34)cc2)no1`, in data set [1], the Kd (commonly the concentration at which binding is half-saturated) came out at 2.3 nM. Besides, in the data set on MV4-11, the IC50 – broadly, the midpoint of a concentration-inhibition curve – is 0.56 nM.
`CN1CCN(CCCOc2ccc3c(c2)sc2nc(-c4ccc(NC(=O)Nc5cc(C(C)(C)C)on5)cc4)cn23)CC1` displayed a Kd in data set [1] of 1.7 nM. In addition, inhibition with MV4-11 was half-maximal at 0.78 nM (IC50).
As for `CC(C)(C)c1cc(NC(=O)Nc2ccc(-c3cn4c(n3)sc3cc(OCCCN5CCOCC5)ccc34)cc2)no1`, in data set [1], the dissociation constant Kd was determined as 0.99 nM. This compound came in with an IC50 in the data set with MV4-11 of 0.79 nM.
In the case of `CC(C)(C)c1cc(NC(=O)Nc2ccc(-c3cn4c(n3)sc3cc(CCC(=O)N5CCOCC5)ccc34)cc2)no1`, the Kd in data set [1] was 1.5 nM. For the same compound, the IC50 in the data set on MV4-11 amounted to 0.23 nM.
Turning to `CCN1CCN(C(=O)c2ccc3c(c2)sc2nc(-c4ccc(NC(=O)Nc5cc(C(C)(C)C)on5)cc4)cn23)CC1`, in data set [1], binding was characterised by a dissociation constant (Kd) of 0.98 nM. The AUC(0-inf) (in general, the area under the concentration-time curve extrapolated to infinity) in the data set “in vivo [2]” amounted to 0.67 µM·h. Also, the highest level in the data set “in vivo [3]” (Cmax) was 490 nM. For the same compound, half-maximal inhibition in the data set on MV4-11 (IC50) was put at 0.41 nM. For the same compound, in the data set “in vivo [4]”, the half-life (commonly how long it takes for the measured level to halve) is 6.7 h.
In turn, `CCN1CCN(C(=O)CCc2ccc3c(c2)sc2nc(-c4ccc(NC(=O)Nc5cc(C(C)(C)C)on5)cc4)cn23)CC1` yielded a Kd in data set [1] of 2 nM. This compound had an IC50 in the data set on MV4-11 of 0.66 nM.
For `CC(C)(C)c1cc(NC(=O)Nc2ccc(-c3cn4c(n3)sc3cc(OCCN5CCCCC5)ccc34)cc2)no1`, the Kd in data set [1] amounted to 1.5 nM. This compound also gave an IC50 in the data set on MV4-11 of 0.88 nM.
Take `CC(C)(C)c1cc(NC(=O)Nc2ccc(-c3cn4c(n3)sc3cc(O)ccc34)cc2)no1`: the affinity in data set [1], expressed as Kd, was 2.7 nM. In the data set on MV4-11, this compound gave a half-maximal inhibitory concentration (IC50) of 0.15 nM.
On the same counts, the results for `CN1CCN(c2ccc3c(c2)sc2nc(-c4ccc(NC(=O)Nc5cc(C(C)(C)C)on5)cc4)cn23)CC1` are 1.2 nM and 0.62 nM.
Compound `CC(C)(C)c1cc(NC(=O)Nc2ccc(-c3cn4c(n3)sc3cccc(OCCN5CCOCC5)c34)cc2)no1` had a Kd in data set [1] of 5.2 nM. Also, the IC50 in the data set with MV4-11 amounted to 9.3 nM.
In data set [1], `CC(C)(C)c1cc(NC(=O)Nc2ccc(-c3cn4c(n3)sc3ccccc34)cc2)no1` yielded a Kd of 1.9 nM. This compound also yielded an IC50 with MV4-11 of 0.35 nM.
On the same counts, the results for `CCN1CCN(Cc2ccc3c(c2)sc2nc(-c4ccc(NC(=O)Nc5cc(C(C)(C)C)on5)cc4)cn23)CC1` are 1.1 nM and 0.38 nM.
In the case of `CC(C)(C)c1cc(NC(=O)Nc2ccc(-c3cn4c(n3)sc3cc(CCC(=O)O)ccc34)cc2)no1`, the affinity in data set [1], expressed as Kd, was 1.3 nM. In addition, it took 0.41 nM to reach half-maximal inhibition in the data set with MV4-11 (IC50).
In the case of `CC(C)(C)c1cc(NC(=O)Nc2ccc(-c3cn4c(n3)sc3cc(CCCN5CCOCC5)ccc34)cc2)no1`, the Kd in data set [1] came to 1.3 nM. Moreover, in “in vivo [2]”, the AUC(0-inf) stood at 14.6 µM·h. Further, the highest level in the data set “in vivo [3]” (Cmax) was 2190 nM. This compound displayed an IC50 with MV4-11 of 0.53 nM. The compound also showed a half-life in the data set “in vivo [4]” of 2.3 h.
With `CC(C)(C)c1cc(NC(=O)Nc2ccc(-c3cn4c(n3)sc3cc(C(=O)O)ccc34)cc2)no1`, binding in data set [1] was put at a Kd of 1.6 nM. This compound had an AUC(0-inf) in the data set “in vivo [2]” of 21.3 µM·h. Besides, the concentration in the data set “in vivo [3]” peaked (Cmax) at 2090 nM. Moreover, in the data set on MV4-11, the concentration for half-maximal inhibition (IC50) amounted to 1 nM. The compound further showed a half-life in the data set “in vivo [4]” of 4.5 h.
In data set [1], `CC(C)(C)c1cc(NC(=O)Nc2ccc(-c3cn4c(n3)sc3cc(OCCCN5CCN(S(C)(=O)=O)CC5)ccc34)cc2)no1` gave a dissociation constant (Kd) of 9.7 nM. Further, the AUC(0-inf) in the data set “in vivo [2]” amounted to 11.7 µM·h. For the same compound, the concentration in “in vivo [3]” peaked (Cmax) at 1580 nM. The compound further displayed an IC50 in the data set on MV4-11 of 1.1 nM. The half-life in the data set “in vivo [4]” was 4.6 h.
